Experimental data as given in patent US20260345619A1 (Principia Biopharma Inc., priority 2023, published 2026).

Experiment: Loss of asthma control (LOAC) events, 12-week ICS/LABA withdrawal study
Type: in vivo, human
Conditions: 400 mg TID
From the text: The general construct of this 12-week Loss of Asthma Control (LOAC) study consisted of a 4-week standardized ICS/LABA background therapy stabilization phase, a 4or 5-week background therapy withdrawal phase and a 3- or 4-week no background therapy phase, followed by a 4-week post IMP treatment safety follow-up period at the beginning of which, pre-screening asthma controller medications are restarted. Participants had access to short-acting β-agonist (SABA) reliever medication at all times during the protocol.
The primary endpoint was the proportion of patients with LOAC. The key secondary endpoint for the study was change in pre-bronchodilator FEV1 from baseline at EOT.
The primary endpoint was proportion of participants with LOAC during the 12-week treatment period.
Note that if the number of participants in some regions was too low, these regions may have been pooled with other regions. This strategy also applied to all the rest of the analyses where region was one of the covariates.
To assess the consistency in treatment effects across different subgroup levels, subgroup analyses were to be performed for the primary efficacy endpoint with respect to age group, gender, region, and other factors.
Secondary endpoints included pre-bronchodilator FEV1 change from baseline at EOT, ACQ-5 score change from baseline, and AQLQ score change from baseline. Other secondary and exploratory endpoints are described in Table 2.

[1] = all others than low EOS and low FeNO
[2] = baseline IgA <Median (2190) mg/L
[3] = baseline IgA ≥Median (2190) mg/L
[4] = baseline IgE <Median (121.85) IU/mL
[5] = baseline IgE ≥Median (121.85) IU/mL
[6] = baseline pre-BD FEV1 <Median (2.1955) L
[7] = baseline pre-BD FEV1 ≥Median (2.1955) L
[8] = blood eosinophil level 1 <0.15 (10^9/L)
[9] = blood eosinophil level 1 ≥0.15-<0.3 (10^9/L)
[10] = blood eosinophil level 1 ≥0.3 (10^9/L)
[11] = blood eosinophil level 2 <0.3 (10^9/L)
[12] = blood eosinophil level 2 ≥0.3 (10^9/L)
[13] = low EOS (<0.15) and low FeNO (<25)
[14] = percent predicted FEV1 group 1 <Median (77)
[15] = percent predicted FEV1 group 1 ≥Median (77)
[16] = percent predicted FEV1 group 2 <80
[17] = percent predicted FEV1 group 2 ≥80

Q: What does the source list for CC(C)(C=C(C#N)C(=O)N1CCC[C@@H](n2nc(-c3ccc(Oc4ccccc4)cc3F)c3c(N)ncnc32)C1)N1CCN(C2COC2)CC1 (mixture of isomers) [rilzabrutinib, (R)-2-[3-[4-amino-3-(2-fluoro-4-phenoxy-phenyl)pyrazolo[3,4-d]pyrimidin-1-yl]piperidine-1-carbonyl]-4-methyl-4-[4-(oxetan-3-yl)piperazin-1-yl]pent-2-enenitrile]?
A: OR vs. placebo [1]: 0.752; RD vs. Placebo [1]: −0.049; LOAC, number (atopic medical conditions: No): 8; OR vs. placebo (atopic medical conditions: No): 0.493; RD vs. Placebo (atopic medical conditions: No): −0.130; LOAC, number (atopic medical conditions: Yes): 4; OR vs. placebo (atopic medical conditions: Yes): 0.821; RD vs. Placebo (atopic medical conditions: Yes): −0.031; LOAC, number (background ICS dose High): 6; OR vs. placebo (background ICS dose High): 0.911; RD vs. Placebo (background ICS dose High): −0.011; LOAC, number (background ICS dose Medium): 6; OR vs. placebo (background ICS dose Medium): 0.421; RD vs. Placebo (background ICS dose Medium): −0.173; LOAC, number (baseline ACQ-5 >2): 6; OR vs. placebo (baseline ACQ-5 >2): 0.346; RD vs. Placebo (baseline ACQ-5 >2): −0.181; LOAC, number (baseline ACQ-5 ≤2): 6; OR vs. placebo (baseline ACQ-5 ≤2): 1.162; RD vs. Placebo (baseline ACQ-5 ≤2): 0.025; LOAC, number (baseline FeNO level 1 <25 ppb): 9; OR vs. placebo (baseline FeNO level 1 <25 ppb): 0.567; RD vs. Placebo (baseline FeNO level 1 <25 ppb): −0.065; LOAC, number (baseline FeNO level 1 ≥25 ppb): 3; OR vs. placebo (baseline FeNO level 1 ≥25 ppb): 0.798; RD vs. Placebo (baseline FeNO level 1 ≥25 ppb): −0.053; LOAC, number (baseline FeNO level 2 <35 ppb): 9; OR vs. placebo (baseline FeNO level 2 <35 ppb): 0.655; RD vs. Placebo (baseline FeNO level 2 <35 ppb): −0.029; LOAC, number (baseline FeNO level 2 ≥35 ppb): 3; OR vs. placebo (baseline FeNO level 2 ≥35 ppb): 0.628; RD vs. Placebo (baseline FeNO level 2 ≥35 ppb): −0.094; LOAC, number [2]: 6; OR vs. placebo [2]: 0.774; RD vs. Placebo [2]: −0.011; LOAC, number [3]: 6; OR vs. placebo [3]: 0.514; RD vs. Placebo [3]: −0.120; LOAC, number (baseline IgE <100 IU/mL): 4; OR vs. placebo (baseline IgE <100 IU/mL): 0.602; RD vs. Placebo (baseline IgE <100 IU/mL): −0.085; LOAC, number [4]: 6; OR vs. placebo [4]: 0.681; RD vs. Placebo [4]: −0.070; LOAC, number (baseline IgE ≥100 IU/mL): 8; OR vs. placebo (baseline IgE ≥100 IU/mL): 0.522; RD vs. Placebo (baseline IgE ≥100 IU/mL): −0.122; LOAC, number [5]: 6; OR vs. placebo [5]: 0.510; RD vs. Placebo [5]: −0.122; LOAC, number [6]: 7; OR vs. placebo [6]: 0.827; RD vs. Placebo [6]: −0.036; OR vs. placebo [7]: 0.362; RD vs. Placebo [7]: −0.176; LOAC, number [8]: 6; OR vs. placebo [8]: 0.716; RD vs. Placebo [8]: −0.062; LOAC, number [9]: 4; OR vs. placebo [9]: 1.619; RD vs. Placebo [9]: 0.072; LOAC, number [10]: 2; OR vs. placebo [10]: 0.139; RD vs. Placebo [10]: −0.363; LOAC, number [11]: 10; OR vs. placebo [11]: 1.019; RD vs. Placebo [11]: 0.047; LOAC, number [12]: 2; OR vs. placebo [12]: 0.146; RD vs. Placebo [12]: −0.350; LOAC, number [13]: 4; OR vs. placebo [13]: 0.441; RD vs. Placebo [13]: −0.157; LOAC, number [14]: 4; OR vs. placebo [14]: 0.452; RD vs. Placebo [14]: −0.129; LOAC, number [15]: 8; OR vs. placebo [15]: 0.599; RD vs. Placebo [15]: −0.078; LOAC, number [16]: 7; OR vs. placebo [16]: 0.736; RD vs. Placebo [16]: −0.047; OR vs. placebo [17]: 0.429; RD vs. Placebo [17]: −0.139; LOAC, number (smoking history Former): 2; OR vs. placebo (smoking history Former): 0.500; RD vs. Placebo (smoking history Former): −0.167; LOAC, number (smoking history Never): 10; OR vs. placebo (smoking history Never): 0.551; RD vs. Placebo (smoking history Never): −0.102
